Test results: patent US20110237549A1, “MODULATORS OF RNA RIBOSWITCHES” (MEMORIAL SLOAN KETTERING CANCER CENTER, priority 2008, published 2011)
Blank lines part the entries; values can stand above or below the molecule they belong to.

Columns and labels:
[1] = biological target: 220-nucleotide full-length F. nucleatum FMN riboswitch; assay: fluorescent binding assay with the 220-nucleotide full-length F. nucleatum impX FMN riboswitch; parameters: species or system Fusobacterium nucleatum; settings: 220-nucleotide RNA; read-out: Kd (mean±s.d.)
[2] = tested on: 112-nucleotide F. nucleatum FMN riboswitch; assay: fluorescent binding assay with the 112-nucleotide F. nucleatum FMN riboswitch; settings: for Kd: read-out: dissociation constants (mean s.d.), 112-nucleotide riboswitch, 2 mM MgCl2 and 100 mM KCl
[3] = tested on: 265-nucleotide full-length T. maritima lysine riboswitch; assay: primer extension assay (reverse transcriptase pausing at A169); format: biochemical, Thermotoga maritima
Source text: FIG. 39. Interactions of lysine and its analogs with the T. maritima lysine riboswitch studied by primer extension. a and b, Representative gels of riboswitch titration by lysine (a) and AEC (b). Reverse transcriptase (RT) pauses three nucleotides prior to the j unction at A169 in the context of the full-length riboswitch if the riboswitch-binding ligand is present in the reaction mixture. c, Representative titration experiments used for calculations of the ligand concentration (FIG. 4c) at which RT pausing is half-maximally attained. The experimental data points for lysine and AEC are from panels (a) and (b). The data were fitted to equation (1), which is based on the equation describing a bimolecular equilibrium, by the nonlinear least squares analysis. In the equation
θ is the fraction of RT pausing, No and Lo are RNA and ligand concentrations, respectively, and P50 is the apparent ligand concentration at which RT pausing is half-maximally attained. The P50 value for the lysine-induced RT pausing 5.50±0.53/−1M (mean±s.d.) (n=2) is similar to the Kd value 4.03±0.34/−1M (mean±s.d.) (n=2) determined by the equilibrium dialysis assay. The relative differences between the P50 values for lysine and its analogs are in overall agreement with the relative differences obtained from the Kd values for lysine and its analogs determined for the B. subtilis lysine riboswitch in ref. 5.
Primer extension experiments were performed using 265-nucleotide full-length riboswitch. The 32P-labelled 13-mer DNA oligonucleotide (100,000 c.p.m.), complementary to nucleotides 253-265 of RNA, was annealed to the 39 end of RNA (final RNA concentration […] in the assay). Primer extension was conducted in […] volume with 40 U of moloney murine leukaemia virus reverse transcriptase in 50 mM Na-HEPES, pH 7.9, 2 mM MgCl2, and variable concentrations of NaCl and KCl (FIG. 4), with or without a tenfold excess of lysine over RNA. After 30 min incubation at 37° C., the reactions were precipitated with ethanol, dissolved in loading buffer and analysed by 10% PAGE. Efficiency of lysine-induced pausing of reverse transcriptase at nucleotide A169 was quantified using FLA-7000 PhosphorImager and Image Gauge software (Fujifilm). Band intensities from independent experiments were averaged after gel-loading correction, background subtraction and normalization. The primer extension assay in the presence of lysine analogues was performed in 50 mM Na-HEPES, pH 7.9, 2 mM MgCl2, 50 mM KCl, and lysine analogues in the range 1028-1022 M. The data were fitted using a bimolecular equilibrium equation (Supplementary FIG. 12) and the resulting P50 values are reported in FIG. 4c. Reverse transcriptase sequencing reactions were run in parallel.

[4] = tested on: mRNA that contains the FMN riboswitch; settings: used at a 17-fold higher concentration than FMN; cited from earlier work
[5] = tested on: T. maritima lysine riboswitch; assay: equilibrium dialysis, T. maritima lysine riboswitch; format: binding, Thermotoga maritima
Description: (§1) The assay was performed as described in Sudarsan, et al., An mRNA structure in bacteria that controls gene expression by binding lysine, Genes Dev. 17:2688-2697 (2003) using 5 kDa DispoEquilibrium DIALYZERS (Harvard Apparatus). In brief, […] RNA (from 0.001 to 20 mM) in the in-line probing buffer was placed in chamber A of the dialyser and equilibrated for 16 h at room temperature against chamber B containing […] 3H-labelled lysine (1 nM; 6,000 c.p.m.) in the same buffer. The amount of bound lysine was calculated by subtracting the radioactivity counts of chamber B from chamber A. The data were fitted using a bimolecular equilibrium equation, assuming that the free lysine concentration is negligible.

[6] = tested on: B. subtilis lysine riboswitch; assay: equilibrium dialysis, B. subtilis lysine riboswitch; format: binding; settings: Bacillus subtilis riboswitch
Description: as §1

[7] = tested on: 143-nucleotide B. subtilis FMN riboswitch; assay: fluorescent binding assay with the 143-nucleotide B. subtilis FMN riboswitch; settings: Bacillus subtilis riboswitch
Description: FIG. 9. The metabolite-sensing domain of the B. subtilis FMN riboswitch. a, The sequence of the 143-nucleotide fragment of B. subtilis riboswitch 5 is presented as a secondary structure schematic, which is based on the consensus secondary structure of the FMN riboswitches with small corrections from the three-dimensional structure of the F nucleatum riboswitch. b, Binding of FMN and its analogs to the 143-nucleotide B. subtilis FMN riboswitch. All measurements were performed using fluorescent assay.

Kd [1]: 0.134 ± 0.0139 µM
binding to the riboswitch in the presence of cobalt hexamine ([2]; cobalt hexamine in place of Mg2+): equally well
reduction of binding affinity in the presence of iridium hexamine ([2]; iridium hexamine in place of Mg2+): about 15 fold
SMILES: Cc1cc2nc3c(=O)[nH]c(=O)nc-3n(C[C@H](O)[C@H](O)[C@H](O)COP(=O)(O)O)c2cc1C [FMN, flavin mononucleotide]

SMILES: N=C(N)NCCCC[C@H](N)C(=O)O [L-homoarginine]
binding to the riboswitch relative to lysine in primer extension [3]: weaker interactions than lysine

binding to the riboswitch relative to lysine in primer extension [3]: weaker binding
SMILES: NCCSC[C@H](N)C(=O)O [AEC, S-(2-aminoethyl)-L-cysteine]

binding to the riboswitch relative to lysine in primer extension [3]: weaker binding
SMILES: NCCOC[C@H](N)C(=O)O [L-4-oxalysine]

SMILES: Cc1cc2nc3c(=O)[nH]c(=O)nc-3n(C)c2cc1C [lumiflavin]
effect of additional removal of the ribityl moiety on binding affinity ([2]; compared with riboflavin): reduces binding affinity to only a very small extent
Kd [2]: 59 µM

SMILES: Cc1cc2nc3c(=O)[nH]c(=O)nc-3n(C[C@H](O)[C@H](O)[C@H](O)COP(=O)(O)OP(=O)(O)OC[C@H]3O[C@@H](n4cnc5c(N)ncnc54)[C@H](O)[C@@H]3O)c2cc1C [FAD, flavin adenine dinucleotide]
inhibition of transcription in vitro [4]: inhibited

binding to the riboswitch relative to lysine in primer extension [3]: weaker interactions than lysine
SMILES: CC(=N)NCCCC[C@H](N)C(=O)O [N6-1-iminoethyl-L-lysine]

SMILES: NCCCC[C@H](N)C(=O)O [lysine, L-lysine]
lysine binding affinity when K+ was omitted or replaced by Na+ [5]: significantly decreased
lysine binding affinity when K+ was omitted or replaced by Na+ [6]: significantly decreased
decrease of reverse transcriptase pause after replacement of K+ by Na+ ([3]; in the presence of lysine): 33 fold

decrease of binding affinity compared with binding of FMN [7]: about 1,000 fold
decrease of binding affinity compared with binding of FMN ([2]; F. nucleatum riboswitch): about 1,000 fold
Kd [2]: 39.8 µM
SMILES: Cc1cc2nc3c(=O)[nH]c(=O)nc-3n(C[C@H](O)[C@H](O)[C@H](O)CO)c2cc1C [riboflavin]
